Laboratory results: article PMC12449377, “Psychedelic-like effects induced by 2,5-dimethoxy-4-iodoamphetamine, lysergic acid diethylamide, and psilocybin in male and female C57BL/6J mice” (Psychopharmacology, 2025)
Read-outs that look alike come from different tables or passages of the source.

What was measured:
C57BL/6J mice [1] = test: Head twitch response (HTR) in mice; type: in vivo, mouse; details: for HTR (total events) Mean: 30 min; for ED50: Mus musculus, sc
Method: Each drug was tested using groups of 12 mice per sex (i.e., 24 total mice per drug). Experimental sessions were conducted once every 1–2 weeks for 2 months per drug. Experimental sessions were spaced apart by at least 1 week to minimize the potential for tolerance to drug effects (Canal and Morgan [2012]; Darmani et al. [1990a]; de la Fuente Revenga et al. [2022]). Experiments were conducted during the light phase (1300–1700 local time; lights on = 0700 in a 12/12 light/dark cycle).
(§1) At 1–2 weeks prior to the beginning of experiments, mice were habituated to handling and receiving s.c. saline injections. On the day of an experiment, mice were acclimated to the testing room in their home cage for at least 30 min prior to the start of sessions. Prior to each session, mice were weighed, and resting body temperatures were recorded. Mice were then placed into experimental chambers for acclimation. Behavioral testing was carried out in TruScan mouse locomotor arenas equipped with photobeam arrays (Coulbourn Instruments, Holliston, MA, USA) that were modified with cylindrical inserts and transparent flooring to aid in semi-automated HTR detection as previously described (Glatfelter et al. [2022a]). After 5 min of acclimation, basal body temperature was recorded followed by s.c. injection of drug or vehicle, and mice were returned to test chambers for 30 min. Dose ranges for each drug were 0.03–10 mg/kg for DOI, 0.03–10 mg/kg for psilocybin, and 0.003–1 mg/kg for LSD. Mice were randomly assigned to specific doses at the beginning of the experiment and received different doses at each session.
(§2) During each session, locomotor activity was quantified via photobeam tracking of distance traveled in cm. Overhead GoPro Hero Black 7 video recordings (120 fps, 960p resolution) were analyzed using a commercially available software package from Clever Sys Inc. (Reston, VA, USA) for the measurement of HTR activity. Mouse body temperature was also collected post-session to calculate temperature change values (basal - post session temperature reading).
(§3) Concentration-response data were fit to a single site non-linear regression model. For the HTR studies, potencies were determined from the ascending limb of the dose-response curves using ED50 potency values from [agonist] vs. response (variable slope, four parameter) least squares fit non-linear regression analyses, whereas efficacy was defined by the top output parameter or Emax from the aforementioned analyses. […] Best-fit values for ED50 and Emax from non-linear regression analyses were compared by extra sum-of-squares F tests. Mean effects for each behavioral endpoint were compared using two-way ANOVA (dose x sex), followed by Sidak’s multiple comparisons post-hoc test. Mean effects for pooled mouse behavioral data were compared via Welch’s ANOVA with Dunnett’s T3 post-hoc test, comparing all doses to saline vehicle controls (0 mg/kg). Alpha was set to 0.05 for all analyses.

5-HT1A = target: T1, 5-HT1A (Mus musculus, UniProt Q64264); test: Competition binding vs [3H]8-OH-DPAT in mouse brain membranes
T1 construct: tissue BioIVT; host or cells: whole C57BL/6 mouse brain minus cerebellum, male and female
T1 sequence (Q64264 1-421): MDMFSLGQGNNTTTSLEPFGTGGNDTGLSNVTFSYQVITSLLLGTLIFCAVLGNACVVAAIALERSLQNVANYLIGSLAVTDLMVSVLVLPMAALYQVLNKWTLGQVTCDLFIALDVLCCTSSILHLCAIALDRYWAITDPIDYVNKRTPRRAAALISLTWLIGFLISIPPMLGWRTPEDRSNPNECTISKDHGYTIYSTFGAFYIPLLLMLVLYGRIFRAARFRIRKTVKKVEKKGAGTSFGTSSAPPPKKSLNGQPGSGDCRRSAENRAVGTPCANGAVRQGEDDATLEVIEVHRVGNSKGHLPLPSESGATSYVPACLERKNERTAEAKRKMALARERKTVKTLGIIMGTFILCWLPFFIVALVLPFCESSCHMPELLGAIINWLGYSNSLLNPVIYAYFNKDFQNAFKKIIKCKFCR
Method: (§4) Competition binding studies were conducted in mouse brain tissue as previously described (Glatfelter et al. [2022b]). Briefly, the experiments utilized membranes prepared from whole C57BL/6 mouse brain minus cerebellum (BioIVT, Westbury, NY, USA). […] We assessed the ability of test drugs to compete for [^3H]M100907 binding at 5-HT2A (1 nM) or [^3H]8-OH-DPAT binding at 5-HT1A (0.5 nM). Radioligands were purchased commercially (PerkinElmer, Boston, MA, USA). Nonspecific binding was determined using 10 µM ketanserin for 5-HT2A and serotonin for 5-HT1A. All data represent 3 experiments performed in triplicate.
as §3

C57BL/6J mice [2] = test: Body temperature change in mice; type: in vivo, mouse; details: for Body Temp Δ (°C) Mean: post 30 min session
Method: All mice were injected s.c. with temperature transponders (14 × 2 mm, model IPTT-300, Avidity Science, Waterford Wisconsin, USA) under brief isoflurane immobilization, and were given at least 1 week to recover (Glatfelter et al. [2022b]). Mice were single housed post-implant, and for the duration of the experiments, to protect their devices from being removed by cage mates. Temperature was measured noninvasively using a handheld reader which is sensitive to the transponder signals.
as §1, §2, §3

5-HT2A = target: T2, 5-HT2A (Mus musculus, UniProt P35363); test: Competition binding vs [3H]M100907 in mouse brain membranes
T2 construct: tissue BioIVT; host or cells: whole C57BL/6 mouse brain minus cerebellum, male and female
T2 sequence (P35363 whole entry): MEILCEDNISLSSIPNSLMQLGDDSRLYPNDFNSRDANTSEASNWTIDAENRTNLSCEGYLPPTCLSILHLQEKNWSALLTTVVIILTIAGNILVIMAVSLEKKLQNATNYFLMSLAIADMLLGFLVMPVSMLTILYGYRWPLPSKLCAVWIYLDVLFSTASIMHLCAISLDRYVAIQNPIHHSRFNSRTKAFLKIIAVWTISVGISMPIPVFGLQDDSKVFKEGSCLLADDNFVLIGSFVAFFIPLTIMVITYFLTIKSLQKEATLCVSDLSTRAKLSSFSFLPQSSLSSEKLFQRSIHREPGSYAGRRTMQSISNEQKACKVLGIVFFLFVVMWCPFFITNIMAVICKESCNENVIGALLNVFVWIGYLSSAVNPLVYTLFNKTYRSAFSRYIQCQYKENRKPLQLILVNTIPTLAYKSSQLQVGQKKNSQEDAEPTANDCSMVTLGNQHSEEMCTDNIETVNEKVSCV
Method: as §4, §3

CCN(CC)C(=O)[C@@H]1C=C2c3cccc4[nH]cc(c34)C[C@H]2N(C)C1 [LSD, lysergic acid diethylamide]
HTR (total events) Mean (C57BL/6J mice [1]; 0.003 mg/kg s.c., female mice): 6.5 total events | HTR (total events) Mean (C57BL/6J mice [1]; 0.003 mg/kg s.c., male mice): 6.3 total events | HTR (total events) Mean (C57BL/6J mice [1]; 0.003 mg/kg s.c., pooled sexes): 6.4 total events | HTR (total events) Mean (C57BL/6J mice [1]; 0.01 mg/kg s.c., female mice): 10.7 total events | HTR (total events) Mean (C57BL/6J mice [1]; 0.01 mg/kg s.c., male mice): 13.5 total events | HTR (total events) Mean (C57BL/6J mice [1]; 0.01 mg/kg s.c., pooled sexes): 12.1 total events | HTR (total events) Mean (C57BL/6J mice [1]; 0.03 mg/kg s.c., female mice): 24.2 total events | HTR (total events) Mean (C57BL/6J mice [1]; 0.03 mg/kg s.c., male mice): 29.7 total events | HTR (total events) Mean (C57BL/6J mice [1]; 0.03 mg/kg s.c., pooled sexes): 27.2 total events | HTR (total events) Mean (C57BL/6J mice [1]; 0.1 mg/kg s.c., female mice): 43.5 total events | HTR (total events) Mean (C57BL/6J mice [1]; 0.1 mg/kg s.c., male mice): 43.7 total events | HTR (total events) Mean (C57BL/6J mice [1]; 0.1 mg/kg s.c., pooled sexes): 43.6 total events | HTR (total events) Mean (C57BL/6J mice [1]; 0.3 mg/kg s.c., female mice): 55.8 total events | HTR (total events) Mean (C57BL/6J mice [1]; 0.3 mg/kg s.c., male mice): 45.0 total events | HTR (total events) Mean (C57BL/6J mice [1]; 0.3 mg/kg s.c., pooled sexes): 50.4 total events | HTR (total events) Mean (C57BL/6J mice [1]; 1 mg/kg s.c., female mice): 38.0 total events | HTR (total events) Mean (C57BL/6J mice [1]; 1 mg/kg s.c., male mice): 26.2 total events | HTR (total events) Mean (C57BL/6J mice [1]; 1 mg/kg s.c., pooled sexes): 32.1 total events | ED50 (C57BL/6J mice [1]; female mice, ascending limb of dose-response curve, read-out: HTR ♀ ED50 (95% CI)): 0.051 mg/kg | ED50 (C57BL/6J mice [1]; male mice, ascending limb of dose-response curve, read-out: HTR ♂ ED50 (95% CI)): 0.024 mg/kg | ED50 (C57BL/6J mice [1]; pooled male and female mice, read-out: HTR ♂+♀ ED50 (95% CI)): 0.035 mg/kg | Duration of HTR effect in the session (C57BL/6J mice [1]; peak/active doses, 30 min session): trended to baseline levels by the end of the testing session | Time of peak effects on HTR post drug administration (C57BL/6J mice [1]; s.c., both sexes, 30 min session): 5 to 10 min | HTR ♀ Emax (95% CI) (C57BL/6J mice [1]; s.c., female mice, top of regression fit): 58 (50–68) HTR events | HTR ♂ Emax (95% CI) (C57BL/6J mice [1]; s.c., male mice, top of regression fit): 46 (44–50) HTR events | HTR ♂+♀ Emax (95% CI) (C57BL/6J mice [1]; s.c., pooled male and female mice): 51 (46–60) HTR events | Ki (5-HT1A; 5-HT1A binding affinity (Ki), males and females, male and female mouse brain membranes, summary statement): 1 to 100 nM | Ki (5-HT1A; [3H]8-OH-DPAT Binding ♀ m5-HT1A Ki, female mouse brain membranes): 0.95 nM | Ki (5-HT1A; [3H]8-OH-DPAT Binding ♂ m5-HT1A Ki, male mouse brain membranes): 1.02 nM | Body Temp Δ (°C) Mean (C57BL/6J mice [2]; 0.003 mg/kg s.c., female mice): -0.1 °C | Body Temp Δ (°C) Mean (C57BL/6J mice [2]; 0.003 mg/kg s.c., male mice): -0.1 °C | Body Temp Δ (°C) Mean (C57BL/6J mice [2]; 0.003 mg/kg s.c., pooled sexes): -0.1 °C | Body Temp Δ (°C) Mean (C57BL/6J mice [2]; 0.01 mg/kg s.c., female mice): -0.1 °C | Body Temp Δ (°C) Mean (C57BL/6J mice [2]; 0.01 mg/kg s.c., male mice): 0.3 °C | Body Temp Δ (°C) Mean (C57BL/6J mice [2]; 0.01 mg/kg s.c., pooled sexes): 0.1 °C | Body Temp Δ (°C) Mean (C57BL/6J mice [2]; 0.03 mg/kg s.c., female mice): -0.1 °C | Body Temp Δ (°C) Mean (C57BL/6J mice [2]; 0.03 mg/kg s.c., male mice): 0.0 °C | Body Temp Δ (°C) Mean (C57BL/6J mice [2]; 0.03 mg/kg s.c., pooled sexes): -0.1 °C | Body Temp Δ (°C) Mean (C57BL/6J mice [2]; 0.1 mg/kg s.c., female mice): -0.3 °C | Body Temp Δ (°C) Mean (C57BL/6J mice [2]; 0.1 mg/kg s.c., male mice): -0.1 °C | Body Temp Δ (°C) Mean (C57BL/6J mice [2]; 0.1 mg/kg s.c., pooled sexes): -0.2 °C | Body Temp Δ (°C) Mean (C57BL/6J mice [2]; 0.3 mg/kg s.c., female mice): -0.4 °C | Body Temp Δ (°C) Mean (C57BL/6J mice [2]; 0.3 mg/kg s.c., male mice): -0.1 °C | Body Temp Δ (°C) Mean (C57BL/6J mice [2]; 0.3 mg/kg s.c., pooled sexes): -0.2 °C | Body temperature effect at highest dose (C57BL/6J mice [2]; 1 mg/kg s.c.): mild hypothermia | Body Temp Δ (°C) Mean (C57BL/6J mice [2]; 1 mg/kg s.c., female mice): -0.9 °C | Body Temp Δ (°C) Mean (C57BL/6J mice [2]; 1 mg/kg s.c., male mice): -1.5 °C | Body Temp Δ (°C) Mean (C57BL/6J mice [2]; 1 mg/kg s.c., pooled sexes): -1.2 °C | Ki (5-HT2A; 5-HT2A binding affinity (Ki), males and females, male and female mouse brain membranes, summary statement): 1 to 100 nM | Ki (5-HT2A; [3H]M100907 Binding ♀ m5-HT2A Ki, female mouse brain membranes): 1.9 nM | Ki (5-HT2A; [3H]M100907 Binding ♂ m5-HT2A Ki, male mouse brain membranes): 2.3 nM
